# Test system: GLP-1 receptor
# Experiment: Evaluation of agonistic activity on GLP-1 receptor (CRE-luciferase reporter in HEK293 cells)
# Type: cell-based
# Settings: HEK293 cells stably expressing CRE-luciferase reporter system; cellular level
# Text: GLP-1 receptor is a Gs-coupled GPCR. CRE-luciferase reporter system was stably expressed in human embryonic kidney epithelial cell line HEK293 used for evaluation. Therefore, once the receptor was activated, the enhancement of intracellular concentration of the second messenger cAMP through Gs signal pathway would initiate the expression of the luciferase gene in the reporter system. The ability of the test compounds to stimulate and activate GLP-1 receptor was reflected by the detected expression level of the luciferase reporter gene.
substance,measurement,value
[Cys^21(mPEG5000-MAL)]Exendin-4 [Compound 1],EC50,22.5 nM
